Tested on: MV4-11 cells
Assay: Anti-apoptosis protein expression in MV4-11 cells (western blot)
Assay type: cell-based, human
Conditions: 24 hours
Experimental: Anti-Apoptosis Protein Expression
MV4-11 cells were seeded on 15 cm dish and cultured overnight. The cells were treated with compound A at 0 (DMSO) or 10 nmol/L in combination with azacitidine at 0 (DMSO) or 1000 nmol/L at final concentration. The assay was performed in duplicate. After twenty-four hours, cells were harvested and lysed with lysis buffer (RIPA Buffer [Thermo Fisher Scientific], 1×Halt Phosphatase Inhibitor Cocktail [Thermo Fisher Scientific], and Protease Inhibitor Cocktail [Sigma-Aldrich]). The samples are centrifuged, and protein concentrations of supernatants were determined using the Pierce (trademark) 660 nm Protein Assay (Thermo Fisher Scientific). Aliquots of 2.0 μg protein/μL were prepared in sample buffer (10 mmol/L dithiothreitol (DTT) [Nacalai Tesque] and 1×SDS sample buffer [Wako Pure Chemical Industries, Ltd.], in lysis buffer), and then were boiled for 5 min.
The samples were separated by electrophoresis and transferred with Trans-Blot (registration symbol) Turbo transfer Pack PVDF (Bio-Rad Laboratories). After blocking with Blocking One (Nacalai Tesque) for 1 hour, each membrane was incubated with antibodies against MCL-1 (#5453, Cell Signaling Technology), BCL2L10 (#3869. Cell Signaling Technology), Survivin (#AF886, R&D Systems), cleaved PARP (#9541, Cell Signaling Technology), or Actin (A2066, Sigma-Aldrich) overnight in a cold room. After washing, the membranes were then incubated with an anti-rabbit IgG HRP-linked antibody (#7074, Cell Signaling Technology) for 1 hour at room temperature. After a final wash, signals for the each proteins were detected using a chemiluminescence reagent ECL-prime Blotting Detection Reagent (GE Healthcare) with a CCD camera (ImageQuant LAS4000. GE Healthcare).

CCc1nc(C(N)=O)c(Nc2ccc(N3CCC(N4CCN(C)CC4)CC3)c(OC)c2)nc1NC1CCOCC1 [compound A hemifumarate, 6-ethyl-3-({3-methoxy-4-[4-(4-methylpiperazin-1-yl)piperidin-1-yl]phenyl}amino)-5-(tetrahydro-2H-pyran-4-ylamino)pyrazine-2-carboxamide hemifumarate]
expression of anti-apoptosis protein BCL2L10 (10 nmol/L): inhibits
expression of anti-apoptosis protein MCL-1 (10 nmol/L): inhibits
expression of anti-apoptosis protein survivin (10 nmol/L): inhibits
PARP cleavage (compound A 10 nmol/L with or without azacitidine 1000 nmol/L): increase

Reference: patent publication US20200360372A1, “COMBINATION THERAPY FOR THE TREATMENT OF ACUTE MYELOID LEUKEMIA” (ASTELLAS PHARMA INC., priority 2016, published 2020)
